pIC50: −log10 of the molar value.
Target: P70S6K (T412E mutant) (Homo sapiens (Human), UniProt P23443, T412E)
Test: P70S6K enzyme assay
Assay type: biochemical
Settings: 3 nM P70S6K T412E mutant, 24 μM ATP, 1 μM FITC-AHA-AKRRRLSSLRA-OH substrate peptide, 90 min at 25° C.
Procedure: The IC50 values reported for the compounds in the Experimental section were derived from the following protocol for the p70S6K enzyme assay.
P70S6K inhibitor compounds were diluted and plated in 96 well plates. A reaction mixture including the following components was then added to the compound plate to initiate the enzyme reaction; P70S6K (3 nM, T412E mutant, Millipore) was mixed with 24 μM ATP in an assay buffer containing 100 mM Hepes (pH 7.5), 5 mM MgCl2, 1 mM DTT, 0.015% Brij and 1 μM of the substrate peptide FITC-AHA-AKRRRLSSLRA-OH (derived from the S6 ribosomal protein sequence, FITC=fluorescein isothiocyanate, AHA=6-aminohexanoic acid). The reaction was incubated for 90 min at 25° C., before the addition of 10 mM EDTA to stop the reaction. The proportion of substrate and product (phosphorylated) peptide was analysed on a Caliper Life Sciences Lab Chip 3000, using a pressure of −1.4 psi, and upstream and downstream voltages of −3000 and −700 respectively. Product peaks were resolved before substrate peaks on the resulting chromatograms.

Sequence of P70S6K (T412E mutant) (P23443 whole entry T412E): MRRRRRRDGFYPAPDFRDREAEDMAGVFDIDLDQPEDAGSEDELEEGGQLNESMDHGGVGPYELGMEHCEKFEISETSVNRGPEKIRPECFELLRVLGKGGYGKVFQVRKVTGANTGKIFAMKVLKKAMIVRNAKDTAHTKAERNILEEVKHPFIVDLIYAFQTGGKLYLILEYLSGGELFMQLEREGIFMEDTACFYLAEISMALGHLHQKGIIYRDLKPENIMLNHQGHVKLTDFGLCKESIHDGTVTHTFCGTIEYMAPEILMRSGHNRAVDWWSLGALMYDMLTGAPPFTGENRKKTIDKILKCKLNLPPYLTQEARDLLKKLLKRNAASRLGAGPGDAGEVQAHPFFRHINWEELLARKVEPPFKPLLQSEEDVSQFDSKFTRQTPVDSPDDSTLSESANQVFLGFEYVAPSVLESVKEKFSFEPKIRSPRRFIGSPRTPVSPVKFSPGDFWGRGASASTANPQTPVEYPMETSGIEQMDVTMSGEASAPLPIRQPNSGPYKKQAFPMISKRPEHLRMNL

SMILES	pIC50
NCC(c1ccc(OC(F)(F)F)cc1)N1CCN(c2ncnc(N)c2-c2cn[nH]c2)CC1 (centres unmarked) [Example 186, 6-(4-(2-amino-1-(4-(trifluoromethoxy)phenyl)ethyl)piperazin-1-yl)-5-(1H-pyrazol-4-yl)pyrimidin-4-amine]	8.85
CC[C@H](NC(=O)C1(N)CCN(c2ncnc(N)c2C#N)CC1)c1ccc(Cl)cc1 [Example 219, 4-Amino-1-(6-amino-5-cyano-pyrimidin-4-yl)-piperidine-4-carboxylic acid [(S)-1-(4-chloro-phenyl)-propyl]-amide]	6.85
N#CC(c1cccc(C(F)(F)F)c1)N1CCN(c2ncnc(N)c2-c2ccc(F)cc2)CC1 (centres unmarked) [Example 152, {4-[6-Amino-5-(4-fluoro-phenyl)-pyrimidin-4-yl]-piperazin-1-yl}-(3-trifluoromethyl-phenyl)-acetonitrile]	< 6.00
Nc1cc(N2CCN(C(CN3CCCCC3)c3cccc(F)c3)CC2)ncn1 (centres unmarked) [Example 76, 6-{4-[1-(3-fluorophenyl)-2-piperidin-1-yl-ethyl]-piperazin-1-yl}-pyrimidin-4-ylamine]	< 6.00
Nc1ncnc(N2CCC(N)(CNC(=O)c3ccc(F)cc3F)C2)c1Br (centres unmarked) [Example 195, N-[3-Amino-1-(6-amino-5-bromo-pyrimidin-4-yl)-pyrrolidin-3-ylmethyl]-2,4-difluoro-benzamide]	8.48
NCC(c1ccc(C(F)(F)F)cc1)N1CCN(c2ncnc(N)c2Br)CC1 (centres unmarked) [Example 1, 6-{4-[2-Amino-1-(4-trifluoromethyl-phenyl)-ethyl]-piperazin-1-yl}-5-bromo-pyrimidin-4-ylamine]	8.24
Nc1ncnc(N2CCC(C(NCC3CCNCC3)c3ccc(F)cc3)CC2)c1-c1ccc(F)cc1 (centres unmarked) [Example 151]	6.70
N#Cc1c(N)ncnc1N1CCC(N)(CNC(=O)c2ccc(F)cc2F)C1 (centres unmarked) [Example 196, N-[3-Amino-1-(6-amino-5-cyano-pyrimidin-4-yl)-pyrrolidin-3-ylmethyl]-2,4-difluoro-benzamide]	7.30

The next lines start with the values.

pIC50	SMILES
7.62	Nc1ncnc(N2CCN(C(CN3CCCCC3)c3ccc(F)cc3)CC2)c1-c1ccc(F)cc1 (centres unmarked) [Example 67, 5-(4-Fluorophenyl)-6{4-[1-(4-fluoro-phenyl)-2-piperidin-1-yl-ethyl]-piperazin-1-yl}-pyrimidin-4-ylamine]
4.62	CCOC(=O)Cn1cc(-c2c(N)ncnc2N2CCN(C(CN3CCC3)c3ccc(Cl)c(Cl)c3)CC2)cn1 (centres unmarked) [Example 117, [4-(4-Amino-6-{4-[2-azetidin-1-yl-1-(3,4-dichloro-phenyl)-ethyl]-piperazin-1-yl}-pyrimidin-5-yl)-pyrazol-1-yl]-acetic acid ethyl ester]
5.44	Nc1ncnc(N2CCN(C(CN3CCC3)c3ccc(F)c(Cl)c3)CC2)c1-c1cn[nH]c1 (centres unmarked) [Example 135, 6-{4-[2-Azetidin-1-yl-1-(3-chloro-4-fluoro-phenyl)-ethyl]-piperazin-1-yl}-5-(1H-pyrazol-4-yl)-pyrimidin-4-ylamine]
5.19	COC(=O)c1ccc(C(CN2CCC2)N2CCN(c3ncnc(N)c3-c3cn[nH]c3)CC2)cc1 (single isomer, unassigned) [Example 86, 4-(1-{4-[6-Amino-5-(1H-pyrazol-4-yl)-pyrimidin-4-yl]-piperazin-1-yl}-2-azetidin-1-yl-ethyl)-benzoic acid methyl ester]
5.57	COC(=O)c1ccc([C@@H](CN2CCC2)N2CCN(c3ncnc(N)c3-c3cn[nH]c3)CC2)cc1 [Example 89, 4-((S)-1-{4-[6-Amino-5-(1H-pyrazol-4-yl)-pyrimidin-4-yl]-piperazin-1-yl}-2-azetidin-1-yl-ethyl)-benzoic acid methyl ester]
7.89	CCc1c(N)ncnc1N1CCN([C@H](CN)c2ccc(Cl)cc2)CC1 [Example 179, 6-{4-[(S)-2-Amino-1-(4-chloro-phenyl)-ethyl]-piperazin-1-yl}-5-ethyl-pyrimidin-4-ylamine]
